Entries after “also recorded” stand apart in the source; their conditions may differ.
Columns and labels:
[1] = system: H460 and A549 lung tumor cells; assay: Glutathione synthesis and excretion after GLS inhibition, cell lines not separated; type: cell-based, human; details: for fold more effective in depletion of glutathione: compared with 100 to 10,000 μM buthionine sulfoximine reported previously; for glutathione synthesis and excretion: in vitro
Experimental: GLS inhibition experiments: In the mechanistic experiments with BPTES or CB-839, cells (7500) were seeded (Time—24 hrs) into 96-well plates containing 100 μl complete medium, and allowed to attach for 24 hrs. […] Media aliquots of 25 μl were removed from each well at 24, 36, and 48 hrs to monitor the time course of metabolite consumption and production (metabolomic footprint). Cells were maintained at 37° C., 5% CO2 and 40% humidity until time of harvest. Cell viability was determined using Cell Glow, Cell TOX or MTT assays according to manufacture descriptions.
LC-MS quantitation by liquid chromatography tandem mass spectrometry (LC-MS/MS): Metabolites were extracted from cell pellets by the addition of 3 ml of 50% methanol/0.2% formic acid to the frozen cells in the culture flasks. Cells were scraped from the culture flasks and transferred to 15 ml tubes. Proteins were precipitated from 750 μl cell pellet suspensions by addition of 1050 μl acetonitrile/0.2% formic acid. Metabolites were extracted from 25 or 100 μl culture media from 96 well plates or 25-T flasks, respectively, and with the respective addition of 275 μl or 1300 μl of 40% methanol/60% acetonitrile/0.2% formic acid. Cell pellets or media suspensions were incubated on ice for 30 min, followed by centrifugation for 10 min at 13000 g. Supernatants were transferred to new vials, solvents were removed in a speed vac and the concentrated metabolites stored at -80° C. until analysis.
Samples were reconstituted in 0.2% formic acid and analyzed by LC-MS/MS (Agilent, 1290 Infinity LC coupled to an Agilent 6490 triple quadrupole mass analyzer). An Agilent Poroshell 2.7 μm C18 (2.1 mm×100 mm) column was operated with a linear gradient from 2% Methanol/0.01% formic acid to 95% Methanol/0.01% formic acid in 10 min. Individual metabolites were monitored in multiple reactions monitoring mode, monitoring specific ion transitions shown in Table 1. The specific ion transitions and retention times for each metabolite were established experimentally using commercially available standard compounds. Quantitation of the individual metabolites were based on external calibration curves that were generated with each set of samples. In the stable isotope tracing experiment, ^13C5-incorporation into subsequent metabolites was determined by monitoring the corresponding m/z ion transitions (Table 1).

A549 cells [2] = assay: GLS inhibition experiment, bright field images of cell death; type: cell-based, human; details: 10, 20, 40 and 100 μM, 48 hrs
Experimental: (§1) GLS inhibition experiments: In the mechanistic experiments with BPTES or CB-839, cells (7500) were seeded (Time—24 hrs) into 96-well plates containing 100 μl complete medium, and allowed to attach for 24 hrs. Complete medium was added (Time 0 hrs) containing various concentrations of GLS inhibitors to give the final concentrations of 0.001 to 100 μM. Media aliquots of 25 μl were removed from each well at 24, 36, and 48 hrs to monitor the time course of metabolite consumption and production (metabolomic footprint). Cells were maintained at 37° C., 5% CO2 and 40% humidity until time of harvest. Cell viability was determined using Cell Glow, Cell TOX or MTT assays according to manufacture descriptions.

H460 cells [3] = assay: as above; type: cell-based, human; details: 10, 20, 40 and 100 μM, 48 hrs
Experimental: as §1

A549 cells [4] = assay: Radiation sensitivity by clonogenic assay; type: cell-based, human; details: 2 μM BPTES 24 h, 4 Gy and 8 Gy, p<0.001
Experimental: (§2) Radiation exposure of lung tumor cell lines: Radiation sensitivity was determined by methods described previously. In brief, for colony formation, A549 and H460 cells were seeded in 6-well plates containing 3 ml standard complete medium and allowed to attach for 24 h. Media were changed and cells were grown for another 24 h in standard medium, glutamine-free medium, medium containing 2 μM BPTES (to deplete glutathione), and medium containing only the vehicle. Cells were subsequently radiated using a Faxitron X-ray Generating System (CP-160, Faxitron X-Ray Corp., Wheeling, Ill.). Single-doses of 4 or 8 Gy (Gray) were delivered at a dose rate of 1 Gy/min (150 kVp and 6.6 mA). Cells were then placed in standard complete RPMI medium and allowed to form colonies for 8 days. The surviving colonies (containing >˜50 cells) were stained and counted on a stereomicroscope. Plating efficiency (PE) of cells with each treatment were determined and normalized to that of control untreated cells and the surviving fractions were calculated by dividing the PE of the treated cells by the PE of the control untreated cells.

H460 cells [5] = assay: Radiation sensitivity by clonogenic assay; type: cell-based, human; details: 2 μM BPTES 24 h, 4 Gy and 8 Gy, p<0.001
Experimental: as §2

A549 cells [6] = assay: GSHE experiment: cell viability and toxicity with 10 μM BPTES
Experimental: (§3) [^13C5]-glutamine experiments: To determine the fraction of glutathione that is derived directly from glutamine, A549 and H460 cell lines were cultured in 96-well plates in glutamine-free medium supplemented with 0.3 g/L [^13C5]-glutamine. Cell media aliquots were harvested at 12, 24, 36, and 48 hrs. Light microscopy was used at 12 hours to visualize the cells at each dosage. After 48 hours the CellTiter 96, CellTiter-Glo® 2.0, and CellTox™ Green Cytotoxicity assays, (Promega, Madison, Wis.) were utilized to respectively assess cell proliferation, cell viability, and cell death of both the BPTES and [^13C5]-glutamine experiments.
(§4) Glutathione-monoethyl ester (GSHE) experiments: Cells (7500) were seeded into 96 well plates containing 100 μl complete media. Cells were treated with 10 μM BPTES in DMSO and 0, 1, 5 and 10 mM GSHE. After 48 hrs cells were harvested and cell viability and toxicity were assessed as described above.

H460 cells [7] = assay: as above
Experimental: as §3, §4

[8] = system: H460 and A549 lung tumor cells; type: cell-based; details: for cell proliferation and viability: FIG. 4 and FIG. 8
Experimental: Media aliquots of 25 μl were removed from each well at 24, 36, and 48 hrs to monitor the time course of metabolite consumption and production (metabolomic footprint). Cells were maintained at 37° C., 5% CO2 and 40% humidity until time of harvest. Cell viability was determined using Cell Glow, Cell TOX or MTT assays according to manufacture descriptions.
Cells were seed in 6-well and allowed to attach for 1 day.
as §3, §2

[9] = system: total glutathione in serum; assay: Total glutathione (reduced plus oxidized) in serum by LC-MS at day of radiation; type: in vivo, nude mice
Experimental: CB-839 was given three times at 20 mg/kg by oral gavage at 28, 16 and 4 hrs prior to a single dose of 18 Gy radiation. CB-839 was administered by oral gavage as solution of 200 mg/kg CB-839 in 200 ul 25% (w/v) hydroxypropyl-b-cyclodextrin in 10 mmol/Lcitrate, pH 2 or 25% (w/v) hydroxypropyl- b-cyclodextrin in 10 mmol/L citrate, pH 2. Thirty minutes prior to radiation treatment, 50 μl blood was taken form tail vein and serum was analyzed for reduced and oxidized GSH by LC-MS. Radiation was given as a single 1Gy/min dose for 2, 4, 8, 12, or 18 min respectively. Tumor volume measurements were repeated at the indicated days until termination of the animals. Tumor volume was computed by multiplying “a” times (“a” X “b”)/2. The “Mean tumor volumes” and “Relative tumor volume” for male and female mice are graphed in FIGS. 9A-B and FIGS. 10A-F, respectively.

H460 cell-derived tumors = assay: H460 mouse xenograft, tumor volume with and without radiation; type: in vivo, nude mice
Source text: METHOD: Mouse xenograft experiments. For the first in vivo study, H460 cell-derived tumors were engrafted on the hind flank of 20 male. […] (1) control (2) CB-839, (3) 18 Gy radiation and (4) CB-839 plus 18 Gy radiation. For the second in vivo experiment, H460 cell-derived tumors were engrafted on the hind flank of 50 female nude mice. […] (1) Vehicle only, (2) 2 Gy radiation, (3) 4 Gy radiation, (4) 8 Gy radiation, (5) 12 Gy radiation, (6) Vehicle only plus CB-839, (7) 2 Gy radiation plus CB-839, (8) 4 Gy radiation plus CB-839, (9) […], (10) 12 Gy radiation plus CB-839. CB-839 was given three times at 20 mg/kg by oral gavage at 28, 16 and 4 hrs prior to a single dose of 18 Gy radiation. CB-839 was administered by oral gavage as solution of 200 mg/kg CB-839 in 200 ul 25% (w/v) hydroxypropyl-b-cyclodextrin in 10 mmol/[…], pH 2 or 25% (w/v) hydroxypropyl- b-cyclodextrin in 10 mmol/L citrate, pH 2. Thirty minutes prior to radiation treatment, 50 μl blood was taken form tail vein and serum was analyzed for reduced and oxidized GSH by LC-MS. Radiation was given as a single 1Gy/min dose for 2, 4, 8, 12, or 18 min respectively. Tumor volume measurements were repeated at the indicated days until termination of the animals. Tumor volume was computed by multiplying “a” times (“a” X “b”)/2. The “Mean tumor volumes” and “Relative tumor volume” for male and female mice are graphed in FIGS. 9A-B and FIGS. 10A-F, respectively.

[10] = male nude mice, day #17, CB-839 20 mg/kg oral gavage 28, 16 and 4 hrs before 18 Gy

Compound: O=C(Cc1ccccc1)Nc1nnc(CCSCCc2nnc(NC(=O)Cc3ccccc3)s2)s1 [BPTES, Bis-2-(5-phenyl-acetamido-1,3,4-thiadiazol-2-yl) ethyl sulfide]
- concentration at which glutathione excretion was essentially abolished ([1]; FIG. 4, H460 and A549): > 5 µM
- fold more effective in depletion of glutathione [1]: ≥ 100 fold
- glutathione synthesis and excretion [1]: abolished glutathione excretion
- cell death, visual (A549 cells [2]): visual increase in cell death
- cell death, visual (H460 cells [3]): visual increase in cell death
- radiation response, colony formation compared to control cells (A549 cells [4]): radiation-induced reduction in colony formation
- radiation response, colony formation compared to control cells (H460 cells [5]): radiation-induced reduction in colony formation
- cell viability (A549 cells [6]; 10 μM BPTES, 48 hrs): reduced viability
- cell viability (H460 cells [7]; 10 μM BPTES, 48 hrs): reduced viability
- cell proliferation and viability [8]: reduced cell proliferation and viability
- cell growth ([8]; FIGS. 4A-4C): significant growth inhibition

Compound: CCOC(=O)CNC(=O)[C@H](CS)NC(=O)CC[C@H](N)C(=O)O [GSHE, Glutathione-monoethyl ester]
- protection against BPTES-induced cytotoxicity (A549 cells [6]; 1-10 mM GSHE with 10 μM BPTES): dose-dependent protection
- protection against BPTES-induced cytotoxicity (H460 cells [7]; 1-10 mM GSHE with 10 μM BPTES): dose-dependent protection

Compound: O=C(Cc1cccc(OC(F)(F)F)c1)Nc1ccc(CCCCc2nnc(NC(=O)Cc3ccccn3)s2)nn1 [CB-839]
- total glutathione in blood lower ([9]; female nude mice, time of radiation, three doses of 200 mg/Kg/bw at 28, 16 and 4 hrs earlier): 53%
- serum glutathione reduced ([9]; in vivo, short term treatment): > 50%
- total GSH in serum lower compared to none treated mice ([9]; male nude mice, day #12 prior to radiation, CB-839 three times): 56%
- fold more effective in depletion of glutathione [1]: at least 1000 fold
- glutathione synthesis and excretion [1]: successfully depletes glutathione synthesis and excretion; also recorded: abolished glutathione excretion
- response to radiation treatment improved, based on tumor volume over time (H460 cell-derived tumors; H460 xenograft, short term (3 times) CB-839): more than 25%
- efficacy of short term CB-839 alone (H460 cell-derived tumors; H460 xenograft, short term (3 times) CB-839, no radiation): does not show efficacy
- tumor growth, CB-839 alone (H460 cell-derived tumors; female nude mice, 3 doses orally every 12 hrs): did not affect the tumor growth
- accelerated tumor growth caused by 2 Gy radiation (H460 cell-derived tumors; female nude mice, CB-839 plus 2 Gy): prevented
- mean tumor size smaller, CB-839 plus radiation compared to CB-839 alone (H460 cell-derived tumors; [10]): 90%
- mean tumor size smaller, CB-839 plus radiation compared to radiation alone (H460 cell-derived tumors; [10]): 20%
- tumor growth, CB-839 alone compared to control (H460 cell-derived tumors; male nude mice, three CB-839 treatments): did not affect subsequent tumor growth
- cell proliferation and viability [8]: reduced cell proliferation and viability
- sensitivity to ionizing radiation in vitro ([8]; in vitro): increase sensitivity to ionizing radiation
